# Measurements: the kinase profiling compilation of Christmann-Franck et al. (2016)
# How the values were obtained:
# Assay in all cases: KINOMEscan competition binding
# Conditions in all cases: compound 0.1 µM
# [1] = molecular target: PAK2 (human) (UniProt Q13177)
# [2] = molecular target: PIM3 (human) (UniProt Q86V86)
# [3] = molecular target: MAP4K1 (human) (UniProt Q92918)
# [4] = molecular target: EGFR (human) (UniProt P00533)
# [5] = molecular target: ACVR2B (human) (UniProt Q13705)
# [6] = molecular target: FGFR1 (human) (UniProt P11362)
# [7] = molecular target: CSNK1A1 (human) (UniProt P48729)
# [8] = molecular target: CDK4 CCND3 (human) (UniProt P11802+P30281)
# [9] = test system: ABL1 (human), P00519 [Y253F]
# [10] = test system: PIK3CA (human), P42336 [I800L]
# [11] = molecular target: CDK3 (human) (UniProt Q00526)
# [12] = test system: KIT (human), P10721 [V559D/V654A]
# [13] = molecular target: STK32C (human) (UniProt Q86UX6)
# [14] = molecular target: CDKL1 (human) (UniProt Q00532)
# [15] = test system: RET (human), P07949 [V804M]
# [16] = molecular target: PIK3C2B (human) (UniProt O00750)
# [17] = molecular target: MAP2K5 (human) (UniProt Q13163)
# [18] = molecular target: MAP2K6 (human) (UniProt P52564)
# [19] = molecular target: MAP3K2 (human) (UniProt Q9Y2U5)
# [20] = molecular target: CLK1 (human) (UniProt P49759)
# [21] = molecular target: STK16 (human) (UniProt O75716)
# [22] = test system: FLT3 (human), P36888 [N841I]
# [23] = molecular target: ROS1 (human) (UniProt P08922)
# [24] = molecular target: MAP3K9 (human) (UniProt P80192)
# [25] = molecular target: BMPR1B (human) (UniProt O00238)
# [26] = molecular target: PAK3 (human) (UniProt O75914)
# [27] = molecular target: PAK6 (human) (UniProt Q9NQU5)
# [28] = molecular target: EPHB1 (human) (UniProt P54762)
# [29] = molecular target: NTRK1 (human) (UniProt P04629)
# [30] = molecular target: MAP3K13 (human) (UniProt O43283)
# [31] = molecular target: PLK1 (human) (UniProt P53350)
# [32] = molecular target: PLK3 (human) (UniProt Q9H4B4)
# [33] = molecular target: WNK1 (human) (UniProt Q9H4A3)
# [34] = molecular target: PRKCE (human) (UniProt Q02156)
# [35] = molecular target: BRSK1 (human) (UniProt Q8TDC3)
# [36] = molecular target: CAMK2D (human) (UniProt Q13557)
# [37] = molecular target: SIK2 (human) (UniProt Q9H0K1)
# [38] = test system: EGFR (human), P00533 [T790M/L858R]
# [39] = molecular target: AKT2 (human) (UniProt P31751)
# [40] = molecular target: CLK2 (human) (UniProt P49760)
# Chain of MAP3K2 (human) (Q9Y2U5 whole entry, looked up): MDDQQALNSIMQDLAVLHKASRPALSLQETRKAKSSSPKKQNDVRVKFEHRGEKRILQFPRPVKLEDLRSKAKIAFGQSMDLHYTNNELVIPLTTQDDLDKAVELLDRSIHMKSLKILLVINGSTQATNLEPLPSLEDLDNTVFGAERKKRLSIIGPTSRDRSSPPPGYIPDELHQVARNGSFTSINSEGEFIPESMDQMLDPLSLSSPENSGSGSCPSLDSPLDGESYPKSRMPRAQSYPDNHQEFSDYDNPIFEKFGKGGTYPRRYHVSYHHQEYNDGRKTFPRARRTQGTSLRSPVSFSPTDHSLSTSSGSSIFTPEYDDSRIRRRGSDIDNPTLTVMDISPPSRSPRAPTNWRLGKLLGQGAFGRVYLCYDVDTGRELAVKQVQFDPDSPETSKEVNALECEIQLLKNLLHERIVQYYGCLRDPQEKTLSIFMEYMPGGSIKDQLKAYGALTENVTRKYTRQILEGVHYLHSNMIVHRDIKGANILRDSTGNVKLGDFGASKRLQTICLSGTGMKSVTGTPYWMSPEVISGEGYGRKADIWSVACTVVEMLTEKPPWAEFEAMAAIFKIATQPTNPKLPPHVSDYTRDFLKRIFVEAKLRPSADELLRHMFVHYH
# Chain of MAP3K13 (human) (O43283 whole entry, looked up): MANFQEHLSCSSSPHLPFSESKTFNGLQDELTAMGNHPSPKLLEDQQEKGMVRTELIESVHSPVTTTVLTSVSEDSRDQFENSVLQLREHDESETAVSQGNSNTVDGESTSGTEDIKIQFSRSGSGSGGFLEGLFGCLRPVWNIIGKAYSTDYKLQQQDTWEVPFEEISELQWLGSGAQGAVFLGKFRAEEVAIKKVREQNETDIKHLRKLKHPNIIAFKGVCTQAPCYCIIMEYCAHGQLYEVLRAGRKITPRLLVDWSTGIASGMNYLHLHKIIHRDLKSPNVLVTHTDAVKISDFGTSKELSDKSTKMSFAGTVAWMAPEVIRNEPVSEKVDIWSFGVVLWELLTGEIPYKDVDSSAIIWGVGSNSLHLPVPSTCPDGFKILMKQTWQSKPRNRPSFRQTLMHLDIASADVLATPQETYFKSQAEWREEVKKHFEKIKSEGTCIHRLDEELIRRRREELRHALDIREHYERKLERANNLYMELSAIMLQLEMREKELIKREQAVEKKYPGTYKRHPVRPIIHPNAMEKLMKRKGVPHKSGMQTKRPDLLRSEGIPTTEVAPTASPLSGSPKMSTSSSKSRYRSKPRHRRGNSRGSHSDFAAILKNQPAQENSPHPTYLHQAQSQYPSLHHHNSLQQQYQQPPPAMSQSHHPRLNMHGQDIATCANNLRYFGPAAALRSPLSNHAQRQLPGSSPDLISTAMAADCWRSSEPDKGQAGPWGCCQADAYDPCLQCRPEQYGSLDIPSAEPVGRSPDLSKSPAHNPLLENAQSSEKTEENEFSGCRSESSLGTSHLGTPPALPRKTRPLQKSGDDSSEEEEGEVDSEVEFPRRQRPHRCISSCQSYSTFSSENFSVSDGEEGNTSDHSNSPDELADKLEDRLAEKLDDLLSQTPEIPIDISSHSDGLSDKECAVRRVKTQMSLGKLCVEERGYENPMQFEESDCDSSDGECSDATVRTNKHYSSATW
# Chain of PLK1 (human) (P53350 whole entry, looked up): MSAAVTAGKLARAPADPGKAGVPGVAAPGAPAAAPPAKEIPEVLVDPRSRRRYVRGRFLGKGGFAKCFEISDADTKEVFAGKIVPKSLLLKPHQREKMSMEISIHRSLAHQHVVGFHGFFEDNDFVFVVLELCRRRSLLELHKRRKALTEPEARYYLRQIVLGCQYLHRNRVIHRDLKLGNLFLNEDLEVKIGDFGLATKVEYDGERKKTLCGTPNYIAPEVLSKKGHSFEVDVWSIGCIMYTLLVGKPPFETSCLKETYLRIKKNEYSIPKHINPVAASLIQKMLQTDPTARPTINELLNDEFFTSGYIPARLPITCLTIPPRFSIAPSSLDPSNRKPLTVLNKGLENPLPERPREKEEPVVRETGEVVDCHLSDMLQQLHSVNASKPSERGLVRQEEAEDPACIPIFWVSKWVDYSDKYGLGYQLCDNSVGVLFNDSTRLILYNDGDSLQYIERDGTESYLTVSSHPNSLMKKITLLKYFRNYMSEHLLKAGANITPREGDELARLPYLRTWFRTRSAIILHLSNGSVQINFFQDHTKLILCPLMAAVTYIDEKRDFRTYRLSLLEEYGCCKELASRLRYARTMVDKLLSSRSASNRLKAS
# Chain of CLK1 (human) (P49759 whole entry, looked up): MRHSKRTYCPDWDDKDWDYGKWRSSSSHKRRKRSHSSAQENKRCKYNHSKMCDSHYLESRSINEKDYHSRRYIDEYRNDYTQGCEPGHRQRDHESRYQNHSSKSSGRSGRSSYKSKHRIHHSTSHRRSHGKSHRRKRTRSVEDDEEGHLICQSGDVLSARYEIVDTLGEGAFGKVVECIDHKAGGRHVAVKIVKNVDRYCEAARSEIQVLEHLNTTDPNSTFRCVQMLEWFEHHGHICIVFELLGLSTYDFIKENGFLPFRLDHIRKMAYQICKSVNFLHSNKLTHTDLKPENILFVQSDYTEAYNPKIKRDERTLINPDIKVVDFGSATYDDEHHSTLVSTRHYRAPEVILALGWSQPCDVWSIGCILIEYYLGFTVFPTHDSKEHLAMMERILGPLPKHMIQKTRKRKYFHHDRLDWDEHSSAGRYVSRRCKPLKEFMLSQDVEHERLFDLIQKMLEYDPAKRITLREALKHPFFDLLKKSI
# Chain of FGFR1 (human) (P11362 whole entry, looked up): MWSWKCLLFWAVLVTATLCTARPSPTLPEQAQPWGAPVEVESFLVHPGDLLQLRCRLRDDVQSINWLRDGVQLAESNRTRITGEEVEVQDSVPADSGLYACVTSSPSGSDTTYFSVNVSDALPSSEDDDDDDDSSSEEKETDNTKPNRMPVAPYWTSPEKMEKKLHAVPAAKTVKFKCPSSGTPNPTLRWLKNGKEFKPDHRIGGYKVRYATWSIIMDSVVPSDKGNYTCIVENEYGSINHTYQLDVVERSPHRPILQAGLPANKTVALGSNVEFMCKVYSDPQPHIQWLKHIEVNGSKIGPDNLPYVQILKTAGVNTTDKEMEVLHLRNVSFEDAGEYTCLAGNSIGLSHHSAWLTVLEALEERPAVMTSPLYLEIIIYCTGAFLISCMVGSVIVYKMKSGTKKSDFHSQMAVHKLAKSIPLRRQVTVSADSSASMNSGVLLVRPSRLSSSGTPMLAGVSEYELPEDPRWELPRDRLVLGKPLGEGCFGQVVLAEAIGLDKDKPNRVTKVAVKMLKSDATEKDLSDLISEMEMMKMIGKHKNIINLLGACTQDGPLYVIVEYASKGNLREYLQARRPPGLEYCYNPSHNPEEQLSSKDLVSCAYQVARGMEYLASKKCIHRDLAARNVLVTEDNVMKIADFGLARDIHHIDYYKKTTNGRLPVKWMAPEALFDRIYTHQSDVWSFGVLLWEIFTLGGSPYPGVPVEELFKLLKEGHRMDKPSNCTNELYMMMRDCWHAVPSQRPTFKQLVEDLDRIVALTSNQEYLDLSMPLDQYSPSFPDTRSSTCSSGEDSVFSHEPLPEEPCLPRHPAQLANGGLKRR
# Chain of EPHB1 (human) (P54762 whole entry, looked up): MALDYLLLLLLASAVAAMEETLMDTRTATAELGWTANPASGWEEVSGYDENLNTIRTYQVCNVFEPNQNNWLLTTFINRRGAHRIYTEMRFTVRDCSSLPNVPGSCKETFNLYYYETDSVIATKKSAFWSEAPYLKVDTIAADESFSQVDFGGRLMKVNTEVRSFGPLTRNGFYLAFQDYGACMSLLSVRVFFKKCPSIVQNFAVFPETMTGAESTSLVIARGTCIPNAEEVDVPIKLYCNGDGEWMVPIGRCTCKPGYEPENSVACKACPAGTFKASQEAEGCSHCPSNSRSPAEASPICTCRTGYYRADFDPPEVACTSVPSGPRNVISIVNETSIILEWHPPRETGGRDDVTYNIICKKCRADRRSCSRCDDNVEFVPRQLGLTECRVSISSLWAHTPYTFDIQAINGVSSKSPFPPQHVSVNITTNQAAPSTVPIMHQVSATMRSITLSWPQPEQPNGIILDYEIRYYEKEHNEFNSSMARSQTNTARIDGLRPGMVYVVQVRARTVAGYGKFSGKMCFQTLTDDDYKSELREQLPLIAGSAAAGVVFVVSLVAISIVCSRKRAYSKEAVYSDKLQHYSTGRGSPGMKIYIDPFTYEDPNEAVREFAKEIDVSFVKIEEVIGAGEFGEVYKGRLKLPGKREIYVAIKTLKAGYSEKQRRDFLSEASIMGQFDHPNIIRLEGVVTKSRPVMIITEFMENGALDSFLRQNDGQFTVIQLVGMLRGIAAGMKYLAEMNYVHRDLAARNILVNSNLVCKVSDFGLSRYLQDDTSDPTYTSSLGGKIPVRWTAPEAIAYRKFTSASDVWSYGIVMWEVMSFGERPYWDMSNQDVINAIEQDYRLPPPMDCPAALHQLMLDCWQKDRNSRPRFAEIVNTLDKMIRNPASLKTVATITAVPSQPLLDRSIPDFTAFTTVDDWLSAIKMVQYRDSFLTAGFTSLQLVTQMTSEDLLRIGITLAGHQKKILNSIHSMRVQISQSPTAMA
compound,measurement,setting,value
CCc1ccc(C(=O)Nc2cc(CN3CCN(C)CC3)cc(C(F)(F)F)c2)cc1C#Cc1cnc2ccnn2c1,"kinase still bound, per cent of control",[1],76%
same,"kinase still bound, per cent of control",[2],77%
same,"kinase still bound, per cent of control",[3],100%
same,"kinase still bound, per cent of control",[4],100%
same,"kinase still bound, per cent of control",[5],100%
same,"kinase still bound, per cent of control",[6],84%
same,"kinase still bound, per cent of control",[7],100%
same,"kinase still bound, per cent of control",[8],100%
same,"kinase still bound, per cent of control",[9],100%
same,"kinase still bound, per cent of control",[10],100%
same,"kinase still bound, per cent of control",[11],100%
same,"kinase still bound, per cent of control",[12],100%
same,"kinase still bound, per cent of control",[13],96%
same,"kinase still bound, per cent of control",[14],100%
same,"kinase still bound, per cent of control",[15],80%
same,"kinase still bound, per cent of control",[16],100%
same,"kinase still bound, per cent of control",[17],100%
same,"kinase still bound, per cent of control",[18],100%
same,"kinase still bound, per cent of control",[19],100%
same,"kinase still bound, per cent of control",[20],71%
same,"kinase still bound, per cent of control",[21],71%
same,"kinase still bound, per cent of control",[22],100%
same,"kinase still bound, per cent of control",[23],78%
same,"kinase still bound, per cent of control",[24],100%
same,"kinase still bound, per cent of control",[25],100%
same,"kinase still bound, per cent of control",[26],41%
same,"kinase still bound, per cent of control",[27],81%
same,"kinase still bound, per cent of control",[28],96%
same,"kinase still bound, per cent of control",[29],75%
same,"kinase still bound, per cent of control",[30],71%
same,"kinase still bound, per cent of control",[31],80%
same,"kinase still bound, per cent of control",[32],100%
same,"kinase still bound, per cent of control",[33],100%
same,"kinase still bound, per cent of control",[34],94%
same,"kinase still bound, per cent of control",[35],100%
same,"kinase still bound, per cent of control",[36],78%
same,"kinase still bound, per cent of control",[37],100%
same,"kinase still bound, per cent of control",[38],48%
same,"kinase still bound, per cent of control",[39],83%
same,"kinase still bound, per cent of control",[40],85%
